Experimental data published in PubChem BioAssay AID652155 (Sanford-Burnham Center for Chemical Genomics, 2013).
Active and inactive are the calls of the source.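 Rule for the calls: active = compounds with mean IC50 of 15 µM or lower in the worm heat shock reporter counterscreen; inactive = the rest.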

Tested on: C. elegans VP596 hsp-16.2 GFP/RFP heat-shock reporter
Test: hsp-16.2 heat-shock reporter inhibition in worms, SAR follow-up, counter-screen for SKN-1 inhibitor project, whole organism, C. elegans VP596, GFP/RFP ratio (AID 652155)

| SMILES | IC50 |
| --- | --- |
| CCOc1cc(CNC2CCCC2)cc(Cl)c1OCc1ccc(OC)cc1 | > 64 µM (inactive) |
| CCOc1cc(CNC2CC2)cc(Cl)c1OCc1ccc(F)cc1 | > 64 µM (inactive) |
| Cc1ccc(-c2csc(-c3ccncc3)n2)cc1 | > 64 µM (inactive) |
| CCOc1cc(CNC2CCCC2)ccc1OCc1ccc(F)cc1 | > 64 µM (inactive) |
| CCOc1cc(CNCc2ccccc2)cc(Cl)c1OCc1ccc(F)cc1 | > 64 µM (inactive) |
| CCOc1cc(CNC2CCCCC2)cc(Cl)c1OCc1ccc(F)cc1 | > 64 µM (inactive) |
| COc1cc(CNC2CCCC2)cc(Cl)c1OCc1ccc(F)cc1 | > 64 µM (inactive) |
| CCOc1cc(CNC2CCCC2)cc(Cl)c1OCc1ccc(F)cc1 | > 64 µM (inactive) |
| Clc1ccc(-c2csc(-c3cccnc3)n2)cc1 | > 64 µM (inactive) |
| CCOc1cc(C(=O)NC2CCCC2)cc(Cl)c1OCc1ccc(F)cc1 | > 64 µM (inactive) |
| CCOc1cc(CNC2CCCC2)cc(Cl)c1OCc1cccc(F)c1 | > 64 µM (inactive) |
| CCOc1cc(CNC2CCCC2)cc(Cl)c1OC | > 64 µM (inactive) |
| Clc1ccc(-c2csc(-c3ccncc3)n2)cc1 | > 64 µM (inactive) |
| CCOc1cc(CNC2CCCC2)cc(Cl)c1OCc1ccc(C)cc1 | > 64 µM (inactive) |
| Fc1ccc(-c2csc(-c3ccncc3)n2)cc1 | > 64 µM (inactive) |
| CCOc1cc(CNC2CCC2)cc(Cl)c1OCc1ccc(F)cc1 | > 64 µM (inactive) |
| Fc1ccc(COc2ccc(CNC3CCCC3)cc2Cl)cc1 | > 64 µM (inactive) |
| Cc1ccc(-c2csc(-c3cccnc3)n2)cc1 | > 64 µM (inactive) |
| CCOc1cc(CNC2CCCC2)cc(Cl)c1OCc1ccccc1Cl | > 64 µM (inactive) |
| COc1ccc(-c2csc(-c3cccnc3)n2)cc1 | > 64 µM (inactive) |
| CCOc1cc(CNc2ccccc2)cc(Cl)c1OCc1ccc(F)cc1 | > 64 µM (inactive) |
| CCOc1cc(CNC2CCCC2)cc(Cl)c1OCc1ccccc1F | > 64 µM (inactive) |
| c1ccc(-c2csc(-c3ccncc3)n2)cc1 | > 64 µM (inactive) |
| Fc1ccc(-c2csc(-c3cccnc3)n2)cc1 | > 64 µM (inactive) |
| CCOc1cc(CNC2CCCC2)cc(Cl)c1OCc1ccc(Cl)cc1 | > 64 µM (inactive) |
| CCOc1cc(CNC(C)C)cc(Cl)c1OCc1ccc(F)cc1 | > 64 µM (inactive) |
| c1ccc(-c2csc(-c3cccnc3)n2)cc1 | > 64 µM (inactive) |
| COc1ccc(-c2csc(-c3ccncc3)n2)cc1 | > 64 µM (inactive) |
